Results reported in ChEMBL document CHEMBL1201862, “PubChem BioAssay data set” (2004).
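Tested at 5 concentrations; 48 h exposure; 96-well plates; endpoints linearly interpolated, else capped at highest concentration. GI50 is the concentration that inhibits growth by half.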 Calls of active or inactive are those of the source. No stated cut-off is given here; in the data, active = GI50 up to about 1.1 µM and inactive = higher.

How the values were obtained:
Assay in all cases: NCI anticancer screen, dose series, 48 h
[1] = tested on: BT-549
[2] = tested on: CAKI-1
[3] = tested on: EKVX
[4] = tested on: Hs-578T
[5] = tested on: IGROV-1
[6] = tested on: K562
[7] = tested on: LOX IMVI
[8] = tested on: M14
[9] = tested on: MCF7
[10] = tested on: MDA-N
[11] = tested on: Malme-3M
[12] = tested on: OVCAR-3
[13] = tested on: OVCAR-4
[14] = tested on: RPMI-8226
[15] = tested on: SF-539
[16] = tested on: SK-MEL-2
[17] = tested on: SN12C
[18] = tested on: SNB-75
[19] = tested on: SW-620
[20] = tested on: U-251

Measured: GI50

COc1ccc(OC)c(NC(=O)C(=O)Nn2c(S)nc3ccccc3c2=O)c1
inactive: [1] > 100 µM | [2] > 100 µM | [3] 82.2 µM | [4] > 100 µM | [5] 88.1 µM | [6] > 100 µM | [7] > 100 µM | [8] > 100 µM | [9] > 100 µM | [10] > 100 µM | [11] > 100 µM | [12] > 100 µM | [13] > 100 µM | [14] > 100 µM | [15] > 100 µM | [16] > 100 µM | [17] > 100 µM | [18] > 100 µM | [19] > 100 µM | [20] > 100 µM

O=C(NC(c1ccccc1)C(O)C(=O)OCc1ccc2c(c1)C(=O)c1ccccc1C2=O)c1ccccc1 (stereo not given)
inactive: [1] 35.3 µM | [2] 8.65 µM | [3] 24.7 µM | [4] 34.8 µM | [5] 18.5 µM | [6] > 90.6 µM | [7] 13.2 µM | [8] 36.1 µM | [9] 17.7 µM | [10] 30.5 µM | [11] 11.4 µM | [12] 12.6 µM | [13] 2.2 µM | [14] 35.8 µM | [15] 6.31 µM | [16] 18.1 µM | [17] 8.69 µM | [18] 4.37 µM | [19] 63.5 µM | [20] 5.46 µM

O=c1oc2ccccc2c(Nc2ccc3c(c2)S(=O)(=O)c2ccccc2O3)c1[N+](=O)[O-]
inactive: [1] 24.2 µM | [2] 17.8 µM | [3] 30.6 µM | [4] 36.7 µM | [5] 21.6 µM | [6] 20.6 µM | [7] 27 µM | [8] 26.2 µM | [9] 21.8 µM | [10] 22.5 µM | [11] 23.5 µM | [12] 20.8 µM | [13] 20 µM | [14] 19.5 µM | [15] 25.3 µM | [16] 19.3 µM | [17] 25.6 µM | [18] 22 µM | [19] 32.8 µM | [20] 19.7 µM

O=P(O)(O)OP(=O)(O)O
inactive: [1] > 100 µM | [2] > 100 µM | [3] > 100 µM | [4] > 100 µM | [5] > 100 µM | [6] > 100 µM | [7] > 100 µM | [8] > 100 µM | [9] > 100 µM | [10] > 100 µM | [11] > 100 µM | [12] > 100 µM | [13] > 100 µM | [14] > 100 µM | [15] > 100 µM | [16] > 100 µM | [17] > 100 µM | [18] > 100 µM | [19] > 100 µM | [20] > 100 µM

O=C1c2cccc([N+](=O)[O-])c2C(=O)N1c1ncn[nH]1
active: [15] 0.822 µM
inactive: [1] 28.2 µM | [2] > 100 µM | [3] 53 µM | [4] 36.4 µM | [5] > 100 µM | [6] > 100 µM | [7] > 100 µM | [8] > 100 µM | [9] > 100 µM | [10] > 100 µM | [11] > 100 µM | [12] > 100 µM | [13] > 100 µM | [14] > 100 µM | [16] 41.2 µM | [17] > 100 µM | [18] 23.6 µM | [19] > 100 µM | [20] 38.6 µM
